Reference: patent publication US11945796B2, “Substituted pyridine derivatives as SARM1 inhibitors” (Nura Bio, Inc., priority 2020, dated 2024)
Like-named read-outs stand apart in the source and are kept apart here.

Target: T1, human SARM1(50-724) (Homo sapiens, UniProt Q6SZW1)
T1 construct: 40 nM human SARM1(50-724)
T1 sequence (Q6SZW1 50-724): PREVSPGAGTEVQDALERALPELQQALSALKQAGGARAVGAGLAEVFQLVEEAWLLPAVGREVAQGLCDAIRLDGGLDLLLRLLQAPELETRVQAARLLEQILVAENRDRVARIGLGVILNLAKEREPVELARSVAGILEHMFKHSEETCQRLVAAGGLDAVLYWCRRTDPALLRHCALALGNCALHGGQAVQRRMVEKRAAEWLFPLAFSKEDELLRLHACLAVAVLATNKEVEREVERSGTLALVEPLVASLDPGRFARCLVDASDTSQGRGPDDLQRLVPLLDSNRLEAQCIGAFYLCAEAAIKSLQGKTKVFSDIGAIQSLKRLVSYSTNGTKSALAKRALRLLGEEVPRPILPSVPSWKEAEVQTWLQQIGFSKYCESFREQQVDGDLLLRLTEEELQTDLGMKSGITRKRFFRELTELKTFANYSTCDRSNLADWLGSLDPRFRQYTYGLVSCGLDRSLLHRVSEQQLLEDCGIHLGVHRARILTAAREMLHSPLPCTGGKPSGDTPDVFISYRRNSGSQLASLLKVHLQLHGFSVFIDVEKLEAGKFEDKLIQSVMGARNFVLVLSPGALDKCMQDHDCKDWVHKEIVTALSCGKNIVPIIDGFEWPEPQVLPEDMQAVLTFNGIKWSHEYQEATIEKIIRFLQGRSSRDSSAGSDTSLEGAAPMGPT
Assay: SARM1 NADase biochemical assay (HPLC peak areas of NAD and NAM)
Settings: for IC50: dose-response, 1:3 serial dilution from 100 μM, 40 nM SARM1, 0.3 mM NMN, 20 μM NAD, 60 min rt
Method: The reaction was incubated at room temperature for 60 minutes and quenched with 20 μL of 0.4% formic acid. […] Total run time for each sample was 4 minutes. […] Samples were run at a flow rate of 0.8 mL/min at 55° C. Peak areas of NAD and NAM were determined using OpenLAB CDS (Chem Station edition) software. For dose-response, the compound was diluted serially 1:3 in DMSO and added to the reaction starting at a final compound concentration of 100 μM in 1% DMSO.

[1] = 50 μM compound, NAD peak area, read-out: Avg NAD % inhibition at 50 μM
[2] = 50 μM compound, NAM peak area, read-out: Avg NAM % inhibition at 50 μM
[3] = read-out: Avg NAD % inhibition at 50 μM
[4] = read-out: Avg NAM % inhibition at 50 μM

Structure (SMILES) | inhibition at 50 µM [1] [%] | inhibition at 50 µM [2] [%] | IC50 [µM] | inhibition at 50 µM [3] [%] | inhibition at 50 µM [4] [%]
O=C(CCc1cc(F)ccc1F)Nc1ccn(Cc2ccncc2)n1 [Example 33, 3-(2,5-Difluorophenyl)-N-(1-(pyridin-4-ylmethyl)-1H-pyrazol-3-yl)propanamide] | 51 to 100 | 51 to 100 | > 100 | – | –
O=C(CCc1ccccc1)Nc1ccn(Cc2ccncc2)n1 [Example 34, 3-Phenyl-N-(1-(pyridin-4-ylmethyl)-1H-pyrazol-3-yl)propanamide] | 0 to 50 | 0 to 50 | – | – | –
O=C(CCc1cc(Cl)cc(Cl)c1)Nc1ccn(Cc2ccncc2)n1 [Example 35, 3-(3,5-Dichlorophenyl)-N-(1-(pyridin-4-ylmethyl)-1H-pyrazol-3-yl)propanamide] | 0 to 50 | 0 to 50 | – | – | –
O=C(Cc1ccccc1)Nc1ccn(Cc2ccncc2)n1 [Example 36, 2-Phenyl-N-(1-(pyridin-4-ylmethyl)-1H-pyrazol-3-yl)acetamide] | – | – | – | 0 to 50 | 0 to 50
O=C(Nc1ccn(Cc2ccncc2)n1)c1ccc2c(c1)OCCO2 [Example 37, N-(1-(Pyridin-4-ylmethyl)-1H-pyrazol-3-yl)-2,3-dihydrobenzo[b][1,4]dioxine-6-carboxamide] | 0 to 50 | 0 to 50 | – | – | –
O=C(Nc1ccn(Cc2ccncc2)n1)c1ccc2c(c1)OCC2 [Example 38, N-(1-(Pyridin-4-ylmethyl)-1H-pyrazol-3-yl)-2,3-dihydrobenzofuran-6-carboxamide] | – | – | 1 to 10 | – | –
O=C(Nc1ccn(Cc2ccncc2)n1)c1ccc2c(c1)CCO2 [Example 39, N-(1-(Pyridin-4-ylmethyl)-1H-pyrazol-3-yl)-2,3-dihydrobenzofuran-5-carboxamide] | 0 to 50 | 0 to 50 | – | – | –
O=C(Nc1ccn(Cc2ccncc2)n1)c1ccc2c(c1)CCC2 [Example 40, N-(1-(Pyridin-4-ylmethyl)-1H-pyrazol-3-yl)-2,3-dihydro-1H-indene-5-carboxamide] | 0 to 50 | 0 to 50 | – | – | –
COc1ccc(C(=O)Nc2ccn(Cc3ccncc3)n2)cc1OC [Example 41, 3,4-Dimethoxy-N-(1-(pyridin-4-ylmethyl)-1H-pyrazol-3-yl)benzamide] | – | – | – | 0 to 50 | 0 to 50
COc1ccc(C(=O)Nc2ccn(Cc3ccncc3)n2)cc1 [Example 42, 4-Methoxy-N-(1-(pyridin-4-ylmethyl)-1H-pyrazol-3-yl)benzamide] | 0 to 50 | 0 to 50 | – | – | –
COc1cccc(C(=O)Nc2ccn(Cc3ccncc3)n2)c1 [Example 43, 3-Methoxy-N-(1-(pyridin-4-ylmethyl)-1H-pyrazol-3-yl)benzamide] | 0 to 50 | 0 to 50 | – | – | –
COc1ccccc1C(=O)Nc1ccn(Cc2ccncc2)n1 [Example 44, 2-Methoxy-N-(1-(pyridin-4-ylmethyl)-1H-pyrazol-3-yl)benzamide] | – | – | – | 0 to 50 | 0 to 50
O=C(Nc1ccn(Cc2ccncc2)n1)c1ccc(O)cc1 [Example 45, 4-Hydroxy-N-(1-(pyridin-4-ylmethyl)-1H-pyrazol-3-yl)benzamide] | 0 to 50 | 0 to 50 | – | – | –
O=C(Nc1ccn(Cc2ccncc2)n1)c1cccc(O)c1 [Example 46, 3-Hydroxy-N-(1-(pyridin-4-ylmethyl)-1H-pyrazol-3-yl)benzamide] | 0 to 50 | 0 to 50 | – | – | –
O=C(Nc1ccn(Cc2ccncc2)n1)c1ccccc1O [Example 47, 2-Hydroxy-N-(1-(pyridin-4-ylmethyl)-1H-pyrazol-3-yl)benzamide] | 0 to 50 | 0 to 50 | – | – | –
Cc1ccccc1C(=O)Nc1ccn(Cc2ccncc2)n1 [Example 48, 2-Methyl-N-(1-(pyridin-4-ylmethyl)-1H-pyrazol-3-yl)benzamide] | 0 to 50 | 0 to 50 | – | – | –

Structure (SMILES) | inhibition at 50 µM [1] [%] | inhibition at 50 µM [2] [%] | IC50 [µM] | inhibition at 50 µM [3] [%] | inhibition at 50 µM [4] [%]
Cc1cccc(C(=O)Nc2ccn(Cc3ccncc3)n2)c1 [Example 49, 3-Methyl-N-(1-(pyridin-4-ylmethyl)-1H-pyrazol-3-yl)benzamide] | 0 to 50 | 0 to 50 | – | – | –
Cc1ccc(C(=O)Nc2ccn(Cc3ccncc3)n2)cc1 [Example 50, 4-Methyl-N-(1-(pyridin-4-ylmethyl)-1H-pyrazol-3-yl)benzamide] | 0 to 50 | 0 to 50 | – | – | –
N#Cc1ccccc1C(=O)Nc1ccn(Cc2ccncc2)n1 [Example 51, 2-Cyano-N-(1-(pyridin-4-ylmethyl)-1H-pyrazol-3-yl)benzamide] | – | – | – | 0 to 50 | 0 to 50
N#Cc1ccc(C(=O)Nc2ccn(Cc3ccncc3)n2)cc1 [Example 52, 4-Cyano-N-(1-(pyridin-4-ylmethyl)-1H-pyrazol-3-yl)benzamide] | 0 to 50 | 0 to 50 | – | – | –
O=C(Nc1ccn(Cc2ccncc2)n1)c1ccccc1Cl [Example 53, 2-Chloro-N-(1-(pyridin-4-ylmethyl)-1H-pyrazol-3-yl)benzamide] | 0 to 50 | 0 to 50 | – | – | –
O=C(Nc1ccn(Cc2ccncc2)n1)c1cccc(Cl)c1 [Example 54, 3-Chloro-N-(1-(pyridin-4-ylmethyl)-1H-pyrazol-3-yl)benzamide] | – | – | 10 to 100 | – | –
O=C(Nc1ccn(Cc2ccncc2)n1)c1ccc(Cl)cc1 [Example 55, 4-Chloro-N-(1-(pyridin-4-ylmethyl)-1H-pyrazol-3-yl)benzamide] | – | – | – | 51 to 100 | 51 to 100
O=C(Nc1ccn(Cc2ccncc2)n1)c1ccccc1C(F)(F)F [Example 56, N-(1-(Pyridin-4-ylmethyl)-1H-pyrazol-3-yl)-2-(trifluoromethyl)benzamide] | 0 to 50 | 0 to 50 | – | – | –
O=C(Nc1ccn(Cc2ccncc2)n1)c1ccc(C(F)(F)F)cc1 [Example 57, N-(1-(Pyridin-4-ylmethyl)-1H-pyrazol-3-yl)-4-(trifluoromethyl)benzamide] | 0 to 50 | 0 to 50 | – | – | –
O=C(Nc1ccn(Cc2ccncc2)n1)c1ccccc1F [Example 58, 2-Fluoro-N-(1-(pyridin-4-ylmethyl)-1H-pyrazol-3-yl)benzamide] | 0 to 50 | 0 to 50 | – | – | –
O=C(Nc1ccn(Cc2ccncc2)n1)c1cccc(F)c1 [Example 59, 3-Fluoro-N-(1-(pyridin-4-ylmethyl)-1H-pyrazol-3-yl)benzamide] | 0 to 50 | 0 to 50 | – | – | –
O=C(Nc1ccn(Cc2ccncc2)n1)c1ccccn1 [Example 61, N-(1-(Pyridin-4-ylmethyl)-1H-pyrazol-3-yl)picolinamide] | 0 to 50 | 0 to 50 | – | – | –
O=C(Nc1ccn(Cc2ccncc2)n1)c1cccnc1 [Example 62, N-(1-(Pyridin-4-ylmethyl)-1H-pyrazol-3-yl)nicotinamide] | – | – | – | 0 to 50 | 0 to 50
O=C(Nc1ccn(Cc2ccncc2)n1)C1COc2ccccc2C1 (stereo not drawn) [Example 63, N-(1-(Pyridin-4-ylmethyl)-1H-pyrazol-3-yl)chromane-3-carboxamide] | – | – | 1 to 10 | – | –
COc1ccc(C(=O)Nc2ccn(Cc3ccncc3)n2)s1 [Example 64, 5-Methoxy-N-(1-(pyridin-4-ylmethyl)-1H-pyrazol-3-yl)thiophene-2-carboxamide] | 0 to 50 | 0 to 50 | – | – | –
